# Measured values published in patent US7910751B2, “Heterocyclidene acetamide derivative” (Mochida Pharmaceutical Co., Ltd., priority 2005, dated 2011).
# Target: T1, human TRPV1 (Homo sapiens, UniProt Q8NER1)
# T1 construct: expressed in transfected cells; host or cells: CHO-K1
# Assay: Measurement of capsaicin-induced Ca influx in human TRPV1 transformed CHO cell line using FDSS-6000
# Assay type: cell-based
# Details: concentration at which the capsaicin concentration-reaction curve is shifted two times to the right, human TRPV1 transformed CHO cells
# T1 sequence (Q8NER1 whole entry): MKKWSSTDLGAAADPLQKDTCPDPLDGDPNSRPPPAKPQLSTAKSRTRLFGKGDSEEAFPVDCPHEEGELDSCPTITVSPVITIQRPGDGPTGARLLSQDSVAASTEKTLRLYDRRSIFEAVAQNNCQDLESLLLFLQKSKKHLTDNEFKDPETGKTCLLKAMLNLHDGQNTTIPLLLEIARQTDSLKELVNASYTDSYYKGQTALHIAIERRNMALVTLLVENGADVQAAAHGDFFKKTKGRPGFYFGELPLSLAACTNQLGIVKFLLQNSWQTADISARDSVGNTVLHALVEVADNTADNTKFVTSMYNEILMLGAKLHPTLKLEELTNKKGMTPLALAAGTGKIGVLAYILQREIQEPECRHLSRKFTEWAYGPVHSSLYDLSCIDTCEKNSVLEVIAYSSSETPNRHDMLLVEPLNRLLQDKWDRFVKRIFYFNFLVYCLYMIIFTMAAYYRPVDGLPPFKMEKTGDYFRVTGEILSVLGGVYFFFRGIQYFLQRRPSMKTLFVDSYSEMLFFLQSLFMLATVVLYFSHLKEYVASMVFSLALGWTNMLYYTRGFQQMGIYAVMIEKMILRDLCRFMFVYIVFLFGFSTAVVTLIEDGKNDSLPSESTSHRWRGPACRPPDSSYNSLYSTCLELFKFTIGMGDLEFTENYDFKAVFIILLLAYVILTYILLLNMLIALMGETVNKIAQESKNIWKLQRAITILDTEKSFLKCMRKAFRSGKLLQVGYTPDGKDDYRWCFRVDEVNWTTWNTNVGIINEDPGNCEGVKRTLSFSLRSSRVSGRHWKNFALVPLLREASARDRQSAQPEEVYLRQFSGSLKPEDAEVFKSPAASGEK
row,SMILES,A2 VALUE
1,"O=C(/C=C1\CCN(c2ccc(Cl)cc2)c2cc(C(F)(F)F)ccc21)NC1CCc2cccnc2C1 (centres unmarked) [Example 56, (E)-2-(1-(4-chlorophenyl)-7-trifluoromethyl-2,3-dihydro-4(1H)-ylidene)-N-(5,6,7,8-tetrahydroquinolin-7-yl)acetamide]",A (compounds of the present invention having an A2 value of less than 100 nM are represented by A)
2,"O=C(/C=C1\CCCOc2cc(C(F)(F)F)ccc21)Nc1ccc(C(=O)N2CCOCC2)cc1 [Example 25, (E)-2-(8-trifluoromethyl-3,4-dihydrobenzo[b]oxepin-5(2H)-ylidene)-N-(4-(4-morpholinylcarbonyl)phenyl)acetamide]",B (compounds having an A2 value of 100 nM or more are represented by B)
3,"O=C(/C=C1\CCCOc2cc(C(F)(F)F)ccc21)NCc1ccc(-n2cccn2)cc1 [Example 38, (E)-N-(4-(1H-pyrazolo-1-yl)phenylmethyl)-2-(8-trifluoromethyl-3,4-dihydrobenzo[b]oxepin-5(2H)-ylidene)acetamide]",B (compounds having an A2 value of 100 nM or more are represented by B)
4,"CC(C)(C)c1ccc2c(c1)OCC/C2=C\C(=O)Nc1cccc2cnccc12 [Example 4, (E)-2-(7-tert-butyl-chroman-4-ylidene)-N-(isoquinolin-5-yl)acetamide]",A (compounds of the present invention having an A2 value of less than 100 nM are represented by A)
5,"O=C(/C=C1\CCCOc2cc(C(F)(F)F)ccc21)Nc1ccc2ccc(O)cc2c1 [Example 128, (E)-2-(8-trifluoromethyl-3,4-dihydrobenzo[b]oxepin-5(2H)-ylidene)-N-(7-hydroxynaphthalen-2-yl)acetamide]",A (compounds of the present invention having an A2 value of less than 100 nM are represented by A)
6,"Cc1ccc(S(=O)(=O)N2CC/C(=C\C(=O)Nc3ccc4cccnc4c3)c3ccc(C(F)(F)F)cc32)cc1 [Example 98, (E)-2-(7-trifluoromethyl-2,3-dihydro-1-(4-methylbenzenesulfonyl)quinolin-4(1H)-ylidene)-N-(quinolin-7-yl)acetamide]",A (compounds of the present invention having an A2 value of less than 100 nM are represented by A)
7,"CC1(C(=O)N2CC/C(=C\C(=O)Nc3cccc4c3CC(O)CC4)c3ccc(C(F)(F)F)cc32)CCC1 (centres unmarked) [Example 90, (E)-2-(1-(1-methylcyclobutanecarbonyl)-7-trifluoromethyl-2,3-dihydroquinolin-4(1H)-ylidene)-N-(7-hydroxy-5,6,7,8-tetrahydronaphthalen-1-yl)acetamide]",A (compounds of the present invention having an A2 value of less than 100 nM are represented by A)
8,"O=C(/C=C1\CCOc2cc(C(F)(F)F)ccc21)NC1CCc2cccnc2C1 (centres unmarked) [Example 6, (E)-2-(7-trifluoromethyl-chroman-4-ylidene)-N-(5,6,7,8-tetrahydroquinolin-7-yl)acetamide]",A (compounds of the present invention having an A2 value of less than 100 nM are represented by A)
9,"O=C(/C=C1\CCCOc2cc(C(F)(F)F)ccc21)Nc1ccc2c(c1)OC(F)(F)O2 [Example 143, (E)-2-(8-trifluoromethyl-3,4-dihydrobenzo[b]oxepin-5(2H)-ylidene)-N-(2,2-difluoro-1,3-benzodioxol-5-yl)acetamide]",B (compounds having an A2 value of 100 nM or more are represented by B)
10,"O=C(/C=C1\CCN(C(=O)c2ccccc2)c2cc(C(F)(F)F)ccc21)Nc1ccc2cccnc2c1 [Example 54, (E)-2-(7-trifluoromethyl-2,3-dihydro-1-benzoylquinolin-4(1H)-ylidene)-N-(quinolin-7-yl)acetamide]",A (compounds of the present invention having an A2 value of less than 100 nM are represented by A)
11,"CCC(C)CC(=O)N1CC/C(=C\C(=O)Nc2ccc3cccnc3c2)c2ccc(C(F)(F)F)cc21 (centres unmarked) [Example 79, (E)-2-(1-(3-methylpentanoyl)-7-trifluoromethyl-2,3-dihydroquinolin-4(1H)-ylidene)-N-(quinolin-7-yl)acetamide]",A (compounds of the present invention having an A2 value of less than 100 nM are represented by A)
12,"CN1CC(O)Cc2c(NC(=O)/C=C3\CCCOc4cc(C(F)(F)F)ccc43)cccc21 (centres unmarked) [Example 69, (E)-2-(8-trifluoromethyl-3,4-dihydrobenzo[b]oxepin-5-(2H)-ylidene)-N-(1-methyl-3-hydroxy-1,2,3,4-tetrahydroquinolin-5-yl)acetamide]",A (compounds of the present invention having an A2 value of less than 100 nM are represented by A)
13,"O=C(/C=C1\CC2(CCC2)Oc2cc(C(F)(F)F)ccc21)Nc1cccc2c1CC(O)CN2 (centres unmarked) [Example 252, (E)-N-(3-hydroxy-1,2,3,4-tetrahydroquinolin-5-yl)-2-(7-trifluoromethyl-2,2-cyclobutylchroman-4-ylidene)acetamide]",A (compounds of the present invention having an A2 value of less than 100 nM are represented by A)
14,"O=C(/C=C1\CCCOc2cc(C(F)(F)F)ccc21)Nc1cccc2c1CC(O)C(=O)N2 (centres unmarked) [Example 67, (E)-2-(8-trifluoromethyl-3,4-dihydrobenzo[b]oxepin-5(2H)-ylidene)-N-(3-hydroxy-2-oxo-1,2,3,4-tetrahydroquinolin-5-yl)acetamide]",A (compounds of the present invention having an A2 value of less than 100 nM are represented by A)
15,"O=C(/C=C1\CCN(C(=O)C2CCC(F)C2)c2cc(C(F)(F)F)ccc21)Nc1cccc2c1CC(O)CC2 (centres unmarked) [Example 88, (E)-2-(1-(3-fluorocyclopentanecarbonyl)-7-trifluoromethyl-2,3-dihydroquinolin-4(1H)-ylidene)-N-(7-hydroxy-5,6,7,8-tetrahydronaphthalen-1-yl)acetamide]",A (compounds of the present invention having an A2 value of less than 100 nM are represented by A)
16,"O=C(/C=C1\CCCOc2cc(C(F)(F)F)ccc21)Nc1ccc2ccn(CCO)c2c1 [Example 151, (E)-2-(8-trifluoromethyl-3,4-dihydrobenzo[b]oxepin-5(2H)-ylidene)-N-(1-(2-hydroxyethyl)indol-6-yl)acetamide]",A (compounds of the present invention having an A2 value of less than 100 nM are represented by A)
17,"O=C(/C=C1\CCCOc2cc(C(F)(F)F)ccc21)Nc1ccc2[nH]ccc2c1 [Example 138, (E)-2-(8-trifluoromethyl-3,4-dihydrobenzo[b]oxepin-5(2H)-ylidene)-N-(indol-5-yl)acetamide]",A (compounds of the present invention having an A2 value of less than 100 nM are represented by A)
18,"O=C(/C=C1\CCCOc2cc(C(F)(F)F)ccc21)Nc1ccc2c(c1)OCO2 [Example 144, (E)-2-(8-trifluoromethyl-3,4-dihydrobenzo[b]oxepin-5(2H)-ylidene)-N-(1,3-benzodioxol-5-yl)acetamide]",A (compounds of the present invention having an A2 value of less than 100 nM are represented by A)
19,"CC1(O)CCc2cccc(NC(=O)/C=C3\CCCOc4cc(C(F)(F)F)ccc43)c2C1 (centres unmarked) [Example 220, (E)-2-(8-trifluoromethyl-3,4-dihydrobenzo[b]oxepin-5(2H)-ylidene)-N-(7-hydroxy-7-methyl-5,6,7,8-tetrahydronaphthalen-1-yl)acetamide]",A (compounds of the present invention having an A2 value of less than 100 nM are represented by A)
20,"O=C(C=C1COCc2cc(C(F)(F)F)ccc21)Nc1cccc2c1CC(O)CC2 (stereo in doubt) [Example 237, (E)-2-(7-trifluoromethyl-isochroman-4-ylidene)-N-(7-hydroxy-5,6,7,8-tetrahydronaphthalen-1-yl)acetamide]",A (compounds of the present invention having an A2 value of less than 100 nM are represented by A)
21,"CC(C)(F)C(=O)N1CC/C(=C\C(=O)Nc2cccc3c2CC(O)CC3)c2ccc(C(F)(F)F)cc21 (centres unmarked) [Example 96, (E)-2-(1-(2-fluoro-2-methylpropanoyl)-7-trifluoromethyl-2,3-dihydroquinolin-4(1H)-ylidene)-N-(7-hydroxy-5,6,7,8-tetrahydronaphthalen-1-yl)acetamide]",A (compounds of the present invention having an A2 value of less than 100 nM are represented by A)
22,"O=C(/C=C1\CCOc2cc(C(F)(F)F)c(F)cc21)Nc1cccc2c1CC(O)CC2 (centres unmarked) [Example 214, (E)-2-(6-fluoro-7-trifluoromethyl-chroman-4-ylidene)-N-(7-hydroxy-5,6,7,8-tetrahydronaphthalen-1-yl)acetamide]",A (compounds of the present invention having an A2 value of less than 100 nM are represented by A)
23,"CC1(C)C/C(=C\C(=O)Nc2cccc3c2CC(O)CC3)c2ccc(C(F)(F)F)cc2O1 (centres unmarked) [Example 242, (E)-2-(7-trifluoromethyl-2,2-dimethylchroman-4-ylidene)-N-(7-hydroxy-5,6,7,8-tetrahydronaphthalen-1-yl)acetamide]",A (compounds of the present invention having an A2 value of less than 100 nM are represented by A)
24,"O=C(/C=C1\CCCOc2cc(C(F)(F)F)ccc21)Nc1cccnc1N1CCOCC1 [Example 20, (E)-2-(8-trifluoromethyl-3,4-dihydrobenzo[b]oxepin-5(2H)-ylidene)-N-(2-morpholinopyridin-3-yl)acetamide]",B (compounds having an A2 value of 100 nM or more are represented by B)
25,"Cc1cc(=O)oc2cc(NC(=O)/C=C3\CCCOc4cc(C(F)(F)F)ccc43)ccc12 [Example 21, (E)-2-(8-trifluoromethyl-3,4-dihydrobenzo[b]oxepin-5(2H)-ylidene)-N-(4-methyl-2-oxo-2H-chromen-7-yl)acetamide]",B (compounds having an A2 value of 100 nM or more are represented by B)
26,"CC(C)CCC(=O)N1CC/C(=C\C(=O)Nc2ccc3cccnc3c2)c2ccc(C(F)(F)F)cc21 [Example 78, (E)-2-(1-(4-methylpentanoyl)-7-trifluoromethyl-2,3-dihydroquinolin-4(1H)-ylidene)-N-(quinolin-7-yl)acetamide]",A (compounds of the present invention having an A2 value of less than 100 nM are represented by A)
